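How tested: cells in 96-well plates exposed to compound for 48 hours at five concentrations. The concentration for full growth arrest is given as TGI.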
Tests used:
Test in all cases: growth of human tumour cells (NCI), 48 h
SNB-78 CNS = system: SNB-78 CNS
IGROV1 ovarian = system: IGROV1 ovarian
LOX IMVI melanoma = system: LOX IMVI melanoma
SF-539 CNS = system: SF-539 CNS
HL-60(TB) leukemia = system: HL-60(TB) leukemia
HCT-15 colon = system: HCT-15 colon
MOLT-4 leukemia = system: MOLT-4 leukemia
A549 NSCLC = system: A549 NSCLC
SF-268 CNS = system: SF-268 CNS
SN12C renal = system: SN12C renal
DLD-1 colon = system: DLD-1 colon
ACHN renal = system: ACHN renal
SNB-75 CNS = system: SNB-75 CNS
K-562 leukemia = system: K-562 leukemia
NCI-H522 lung = system: NCI-H522 lung
TK-10 renal = system: TK-10 renal
NCI-H460 lung = system: NCI-H460 lung
A498 renal = system: A498 renal
OVCAR-5 ovarian = system: OVCAR-5 ovarian
NCI-H23 lung = system: NCI-H23 lung
SK-MEL-28 melanoma = system: SK-MEL-28 melanoma
OVCAR-8 ovarian = system: OVCAR-8 ovarian
SK-MEL-5 melanoma = system: SK-MEL-5 melanoma
SW-620 colon = system: SW-620 colon
KM12 colon = system: KM12 colon
RXF 393 renal = system: RXF 393 renal
CAKI-1 renal = system: CAKI-1 renal
U251 CNS = system: U251 CNS
SNB-19 CNS = system: SNB-19 CNS
M19-MEL melanoma = system: M19-MEL melanoma
UACC-62 melanoma = system: UACC-62 melanoma
SK-OV-3 ovarian = system: SK-OV-3 ovarian
HOP-18 NSCLC = system: HOP-18 NSCLC
UO-31 renal = system: UO-31 renal
KM20L2 colon = system: KM20L2 colon
EKVX NSCLC = system: EKVX NSCLC
SF-295 CNS = system: SF-295 CNS
HOP-62 NSCLC = system: HOP-62 NSCLC
DMS 114 small cell lung = system: DMS 114 small cell lung
CCRF-CEM leukemia = system: CCRF-CEM leukemia
OVCAR-3 ovarian = system: OVCAR-3 ovarian
MALME-3M melanoma = system: MALME-3M melanoma
SK-MEL-2 melanoma = system: SK-MEL-2 melanoma
RPMI-8226 leukemia = system: RPMI-8226 leukemia
786-0 renal = system: 786-0 renal
DMS 273 small cell lung = system: DMS 273 small cell lung
HCC-2998 colon = system: HCC-2998 colon
HOP-92 NSCLC = system: HOP-92 NSCLC
COLO 205 colon = system: COLO 205 colon
UACC-257 melanoma = system: UACC-257 melanoma
SR leukemia = system: SR leukemia
M14 melanoma = system: M14 melanoma
HT29 colon = system: HT29 colon
NCI-H226 lung = system: NCI-H226 lung
LXFL 529 NSCLC = system: LXFL 529 NSCLC
HCT-116 colon = system: HCT-116 colon
OVCAR-4 ovarian = system: OVCAR-4 ovarian

## COc1ccc(/C=C/C(=O)c2sc(NC(=S)NC(=O)c3ccccc3F)nc2C)cc1OC
SNB-78 CNS
  TGI: > 100 µM
IGROV1 ovarian
  TGI: > 100 µM
LOX IMVI melanoma
  TGI: > 100 µM
SF-539 CNS
  TGI: > 100 µM
HL-60(TB) leukemia
  TGI: > 100 µM
HCT-15 colon
  TGI: > 100 µM
MOLT-4 leukemia
  TGI: > 100 µM
A549 NSCLC
  TGI: > 100 µM
SF-268 CNS
  TGI: > 100 µM
SN12C renal
  TGI: > 100 µM
DLD-1 colon
  TGI: > 100 µM
ACHN renal
  TGI: > 100 µM
SNB-75 CNS
  TGI: > 100 µM
K-562 leukemia
  TGI: > 100 µM
NCI-H522 lung
  TGI: 63.9 µM
TK-10 renal
  TGI: > 100 µM
NCI-H460 lung
  TGI: > 100 µM
A498 renal
  TGI: > 100 µM
OVCAR-5 ovarian
  TGI: > 100 µM
NCI-H23 lung
  TGI: > 100 µM
SK-MEL-28 melanoma
  TGI: > 100 µM
OVCAR-8 ovarian
  TGI: > 100 µM
SK-MEL-5 melanoma
  TGI: > 100 µM
SW-620 colon
  TGI: > 100 µM
KM12 colon
  TGI: > 100 µM
RXF 393 renal
  TGI: > 100 µM
CAKI-1 renal
  TGI: > 100 µM
U251 CNS
  TGI: > 100 µM
SNB-19 CNS
  TGI: > 100 µM
M19-MEL melanoma
  TGI: > 100 µM
UACC-62 melanoma
  TGI: > 100 µM
SK-OV-3 ovarian
  TGI: > 100 µM
HOP-18 NSCLC
  TGI: > 100 µM
UO-31 renal
  TGI: > 100 µM
KM20L2 colon
  TGI: > 100 µM
EKVX NSCLC
  TGI: > 100 µM
SF-295 CNS
  TGI: > 100 µM
HOP-62 NSCLC
  TGI: > 100 µM
DMS 114 small cell lung
  TGI: > 100 µM
CCRF-CEM leukemia
  TGI: > 100 µM
OVCAR-3 ovarian
  TGI: > 100 µM
MALME-3M melanoma
  TGI: > 100 µM
SK-MEL-2 melanoma
  TGI: > 100 µM
RPMI-8226 leukemia
  TGI: > 100 µM
786-0 renal
  TGI: > 100 µM
DMS 273 small cell lung
  TGI: > 100 µM
HCC-2998 colon
  TGI: > 100 µM
HOP-92 NSCLC
  TGI: > 100 µM
COLO 205 colon
  TGI: > 100 µM

## O=C(Nc1ccn(CCOC(=O)c2ccccc2)c(=O)n1)c1ccccc1
SNB-78 CNS
  TGI: > 100 µM
IGROV1 ovarian
  TGI: > 100 µM
LOX IMVI melanoma
  TGI: > 100 µM
SF-539 CNS
  TGI: > 100 µM
HL-60(TB) leukemia
  TGI: > 100 µM
HCT-15 colon
  TGI: > 100 µM
A549 NSCLC
  TGI: > 100 µM
UACC-257 melanoma
  TGI: > 100 µM
SF-268 CNS
  TGI: > 100 µM
SN12C renal
  TGI: > 100 µM
SR leukemia
  TGI: > 100 µM
ACHN renal
  TGI: > 100 µM
SNB-75 CNS
  TGI: > 100 µM
K-562 leukemia
  TGI: > 100 µM
NCI-H522 lung
  TGI: > 100 µM
TK-10 renal
  TGI: > 100 µM
NCI-H460 lung
  TGI: > 100 µM
A498 renal
  TGI: > 100 µM
OVCAR-5 ovarian
  TGI: > 100 µM
SK-MEL-28 melanoma
  TGI: > 100 µM
OVCAR-8 ovarian
  TGI: > 100 µM
SK-MEL-5 melanoma
  TGI: > 100 µM
SW-620 colon
  TGI: > 100 µM
M14 melanoma
  TGI: > 100 µM
KM12 colon
  TGI: > 100 µM
RXF 393 renal
  TGI: > 100 µM
CAKI-1 renal
  TGI: > 100 µM
U251 CNS
  TGI: > 100 µM
M19-MEL melanoma
  TGI: > 100 µM
UACC-62 melanoma
  TGI: > 100 µM
HT29 colon
  TGI: > 100 µM
SK-OV-3 ovarian
  TGI: > 100 µM
HOP-18 NSCLC
  TGI: > 100 µM
NCI-H226 lung
  TGI: > 100 µM
UO-31 renal
  TGI: > 100 µM
KM20L2 colon
  TGI: > 100 µM
EKVX NSCLC
  TGI: > 100 µM
SF-295 CNS
  TGI: > 100 µM
HOP-62 NSCLC
  TGI: > 100 µM
DMS 114 small cell lung
  TGI: > 100 µM
CCRF-CEM leukemia
  TGI: > 100 µM
OVCAR-3 ovarian
  TGI: > 100 µM
MALME-3M melanoma
  TGI: > 100 µM
SK-MEL-2 melanoma
  TGI: > 100 µM
RPMI-8226 leukemia
  TGI: > 100 µM
786-0 renal
  TGI: > 100 µM
DMS 273 small cell lung
  TGI: > 100 µM
LXFL 529 NSCLC
  TGI: > 100 µM
HCT-116 colon
  TGI: > 100 µM
HOP-92 NSCLC
  TGI: > 100 µM
COLO 205 colon
  TGI: > 100 µM
OVCAR-4 ovarian
  TGI: > 100 µM

## Cc1noc(C)c1C1=CCCCc2ccccc21
SNB-78 CNS
  TGI: > 100 µM
IGROV1 ovarian
  TGI: > 100 µM
SF-539 CNS
  TGI: > 100 µM
HL-60(TB) leukemia
  TGI: 62.7 µM
HCT-15 colon
  TGI: > 100 µM
MOLT-4 leukemia
  TGI: > 100 µM
A549 NSCLC
  TGI: > 100 µM
UACC-257 melanoma
  TGI: > 100 µM
SF-268 CNS
  TGI: > 100 µM
SN12C renal
  TGI: > 100 µM
SR leukemia
  TGI: 74.9 µM
DLD-1 colon
  TGI: > 100 µM
ACHN renal
  TGI: > 100 µM
SNB-75 CNS
  TGI: 88.2 µM
K-562 leukemia
  TGI: > 100 µM
NCI-H522 lung
  TGI: > 100 µM
NCI-H460 lung
  TGI: > 100 µM
OVCAR-5 ovarian
  TGI: > 100 µM
NCI-H23 lung
  TGI: > 100 µM
SK-MEL-28 melanoma
  TGI: > 100 µM
OVCAR-8 ovarian
  TGI: > 100 µM
SK-MEL-5 melanoma
  TGI: > 100 µM
SW-620 colon
  TGI: > 100 µM
M14 melanoma
  TGI: > 100 µM
KM12 colon
  TGI: > 100 µM
RXF 393 renal
  TGI: > 100 µM
U251 CNS
  TGI: > 100 µM
SNB-19 CNS
  TGI: > 100 µM
M19-MEL melanoma
  TGI: > 100 µM
UACC-62 melanoma
  TGI: > 100 µM
HT29 colon
  TGI: > 100 µM
SK-OV-3 ovarian
  TGI: > 100 µM
HOP-18 NSCLC
  TGI: > 100 µM
UO-31 renal
  TGI: > 100 µM
KM20L2 colon
  TGI: > 100 µM
EKVX NSCLC
  TGI: > 100 µM
SF-295 CNS
  TGI: > 100 µM
HOP-62 NSCLC
  TGI: > 100 µM
DMS 114 small cell lung
  TGI: > 100 µM
CCRF-CEM leukemia
  TGI: > 100 µM
OVCAR-3 ovarian
  TGI: > 100 µM
MALME-3M melanoma
  TGI: > 100 µM
SK-MEL-2 melanoma
  TGI: > 100 µM
RPMI-8226 leukemia
  TGI: > 100 µM
786-0 renal
  TGI: > 100 µM
DMS 273 small cell lung
  TGI: > 100 µM
HCC-2998 colon
  TGI: > 100 µM
LXFL 529 NSCLC
  TGI: > 100 µM
HCT-116 colon
  TGI: > 100 µM
HOP-92 NSCLC
  TGI: 85.1 µM
COLO 205 colon
  TGI: > 100 µM
OVCAR-4 ovarian
  TGI: > 100 µM
